Where two headings read alike, the source gives them in different places. Bounds are passed on as bounds.

Type in all cases: cell-based
Test [1] relates to Staphylococcus aureus MRSA (DSM 11822). The test can be described thus: Antibacterial growth inhibition screen, residual growth in % (OD600). The following applies: for activity at 5 µM: Staphylococcus aureus, strain DSM 11822, compound concentration 5 µM, 18 h at 37 °C; for activity against MRSA (in words): growth inhibition assay. Here is the method: (§1) Overnight cultures of the bacteria were grown aerobically at 37 °C in Müller–Hinton broth with added 1% glucose and a pH of 7.2 for Gram-negative strains, or with a Trypticase soy yeast extract medium (TSY—30 g/L Trypticase soy broth, 3 g/L yeast extract, pH 7.2) for Gram-positive strains. […] A total of 25 μL of test culture was added to 25 μL of a serial dilution of the test compounds in the appropriate medium for the different strains in accordance with standardized procedures in 384-well plates. For screening purposes, the residual absorbance in % was tested at the compound concentrations of 5 and 50 µM. For the selected compounds, the concentration-dependent growth inhibition curves were recorded from the stock solutions in DMSO at the final concentrations of 100, 50, 25, 12.5, 6,25, 3.125, 1.56, 0.78, 0.39, and 0.2 µM. As the positive control compounds, Linezolid (both MRSA strains) Ciprofloxacin (E. faecium, E. coli), and Amikacin (P. aeruginosa) were applied. The highest DMSO concentration in the assay was 1%, which had no apparent effect on the growth of the bacteria. After an incubation time of 18 h at 37 °C under moist conditions, the optical density at 600 nm was measured with a Fusion Universal Microplate Analyzer (Perkin–Elmer, Waltham, MA, USA). […] The following bacterial strains were used: Gram-negative: Escherichia coli (DSM 1116) and Pseudomonas aeruginosa PA7 (DSM 24068), and Gram-positive: Staphylococcus aureus MRSA (clinical isolate, RKI 11-02670) and Staphylococcus aureus MRSA (DSM 11822). The MIC values were determined by curve fitting with Sigma Plot.

The test system of test [2] is Staphylococcus aureus MRSA (clinical isolate, RKI 11-02670). Put plainly: Antibacterial MIC determination, concentration-dependent growth inhibition. Here is the method:
as §1

Test [3] deals with human breast cancer cell line MCF-7. The test can be described thus: Antiproliferative WST-1 assay. The settings on record: WST-1, 5 days. Here is the method:
(§2) In addition to probing effects on bacterial pathogens, the compounds’ ability to interfere with the proliferation and/or viability of four mammalian cell lines was assessed by quantifying their mitochondrial dehydrogenase activity in a colorimetric assay with the tetrazolium dye WST-1.
(§3) The effects of the compounds on cell viability were probed with a WST-1 test using the procedure of Ishiyama et al. as modified by Sasse et al.. […] Briefly, the subconfluent cells were washed with Earle’s Balanced Salt Solution (Gibco) without Ca and Mg ions, trypsinized, and re-suspended in Dulbecco’s modified eagle’s medium that contained 5% fetal bovine serum (FBS; L929, KB-3-1, FS4-LTM) or Roswell Park Memorial Institute medium that contained 5% FBS, 0.5% Minimum Essential Medium Non-Essential Amino Acids, Gibco (MEM NEAA), 0.5% GlutaMAX (Gibco), and insulin at 5 μg/mL (MCF-7). […] The blank and solvent controls were incubated under identical conditions. After an incubation period of 5 days (for L929, KB-3-1, and MCF-7) or 24 h (for FS4-LTM), 3 μL of WST-1 (ready-to-use solution by Roche) was added. The incubation time of the plates at 37 °C varied between the cell lines from 20 min for KB-3-1, 30 min for L929, 1 h for FS4-LTM, to 2 h for MCF-7, before measuring absorbance at 450 nm (reference 600 nm) with an Infinite 200 PRO plate reader (Tecan, Männedorf, Switzerland). As the positive control compounds, Auranofin and Staurosporin were applied. The absorbance of the solvent control was set to 100%. The EC50 values were determined with Sigma Plot.
A general note: Tetrazolium dyes change colour on reduction, which living cells bring about.

The test system of test [4] is conditional immortalized human fibroblast cell line FS4-LTM. The test can be described thus: Antiproliferative WST-1 assay. The settings on record: WST-1, 24 h. The procedure:
as §3, with “In addition to probing effects on bacterial pathogens, the compounds’ ability to interfere with the proliferation and/or viability of four mammalian cell lines was assessed by quantifying their mitochondrial dehydrogenase activity in a colorimetric assay with the tetrazolium dye WST-1. […] The effects” for “The effects”

The subject of test [5] is human cervical carcinoma cell line KB-3-1. Put plainly: Antiproliferative WST-1 assay. The settings on record: WST-1, 5 days. Here is the method:
as §3, with “In addition to probing effects on bacterial pathogens, the compounds’ ability to interfere with the proliferation and/or viability of four mammalian cell lines was assessed by quantifying their mitochondrial dehydrogenase activity in a colorimetric assay with the tetrazolium dye WST-1. […] The effects” for “The effects”

Test [6] has as its system mouse fibroblast cell line L929. The test can be described thus: Antiproliferative WST-1 assay. The settings on record: WST-1, 5 days. Here is the method:
as §3, with “In addition to probing effects on bacterial pathogens, the compounds’ ability to interfere with the proliferation and/or viability of four mammalian cell lines was assessed by quantifying their mitochondrial dehydrogenase activity in a colorimetric assay with the tetrazolium dye WST-1. […] The effects” for “The effects”

Test [7] concerns four mammalian cell lines (L929, KB-3-1, MCF-7, FS4-LTM). The test can be described thus: Antiproliferative WST-1 assay, range over all four cell lines. The following applies: 5 days (L929, KB-3-1, MCF-7) or 24 h (FS4-LTM). Here is the method:
as §2
The effects of the compounds on cell viability were probed with a WST-1 test using the procedure of Ishiyama et al. as modified by Sasse et al.. […] Briefly, the subconfluent cells were washed with Earle’s Balanced Salt Solution (Gibco) without Ca and Mg ions, trypsinized, and re-suspended in Dulbecco’s modified eagle’s medium that contained 5% fetal bovine serum (FBS; L929, KB-3-1, FS4-LTM) or Roswell Park Memorial Institute medium that contained 5% FBS, 0.5% Minimum Essential Medium Non-Essential Amino Acids, Gibco (MEM NEAA), 0.5% GlutaMAX (Gibco), and insulin at 5 μg/mL (MCF-7). […] After an incubation period of 5 days (for L929, KB-3-1, and MCF-7) or 24 h (for FS4-LTM), 3 μL of WST-1 (ready-to-use solution by Roche) was added. The incubation time of the plates at 37 °C varied between the cell lines from 20 min for KB-3-1, 30 min for L929, 1 h for FS4-LTM, to 2 h for MCF-7, before measuring absorbance at 450 nm (reference 600 nm) with an Infinite 200 PRO plate reader (Tecan, Männedorf, Switzerland). […] The absorbance of the solvent control was set to 100%. The EC50 values were determined with Sigma Plot.

Setting [8] is: strain RKI 11-02670, 18 h at 37 °C, read-out: MRSA MIC.
Where [9] appears, read: strain RKI 11-02670, converted from µM, read-out: MRSA MIC (µg/mL values in brackets).

`CC(=O)NC[C@H]1CN(c2ccc(N3CCOCC3)c(F)c2)C(=O)O1` [Linezolid, reference compound]: in test [1], the activity at 5 µM is 1%. In addition, the MIC in test [2] (setting [8]) amounted to 0.4 µM.

`O=[N+]([O-])C(C(Cl)=C(Cl)Cl)=C(n1cccn1)n1cccn1` [Compound 16c, 1,1’-(3,4,4-Trichloro-2-nitrobuta-1,3-diene-1,1-diyl)bis(1H-pyrazole)]: in test [1], the activity at 5 µM worked out at 126% and the “activity against MRSA (in words)” value was “no activity”.

Turning to `CN[C@@H]1C[C@H]2O[C@@](C)([C@@H]1OC)n1c3ccccc3c3c4c(c5c6ccccc6n2c5c31)C(=O)NC4` [Staurosporine, reference compound], the EC50 in test [3] (Homo sapiens, MCF7, 120 h) was < 0.14 µM.

Turning to `CC(=O)OC[C@H]1O[C@@H]([S-])[C@H](OC(C)=O)[C@@H](OC(C)=O)[C@@H]1OC(C)=O.CCP(CC)CC.[Au+]` [Auranofin, reference compound], the EC50 in test [4] worked out at 1.3 µM; in test [5], 0.6 µM; in test [6] it was 0.4 µM; in test [3] it was 3.5 µM.

Consider `O=C(O)CSc1nc2c(ccc3ccccc32)c(C(Cl)Cl)c1[N+](=O)[O-]` [Compound 13, 2-((4-(Dichloromethyl)-3-nitrobenzo[h]quinolin-2-yl)thio)acetic acid], for which the activity at 5 µM in test [1] came to 1%. Further, in test [1], the “activity against MRSA (in words)” value is given as “high activity”. For the same compound, the MIC in test [2] (setting [8]) is 8.4 µM; in test [2] (setting [9]) it was 3.3 µg/mL. Moreover, the EC50 in test [4] (Homo sapiens, FS4-LTM) is 15.7 µM; in test [5] (Homo sapiens, KB 3-1, 120 h), 6.9 µM; in test [6] (Mus musculus, L929, 120 h) it was 45 µM; in test [3] (Homo sapiens, MCF7, 120 h) it was 17 µM; in test [7] it was 6.9 to 45 µM.

As to `CCOC(=O)C[S+]([O-])c1nc2c(ccc3ccccc32)c(C(Cl)Cl)c1[N+](=O)[O-]` (centres unmarked) [Compound 8, Ethyl 2-((4-(dichloromethyl)-3-nitrobenzo[h]quinolin-2-yl)sulfinyl)acetate], in test [1], the activity at 5 µM was determined as 1%. For the same compound, the MIC in test [2] (setting [8]) was found to be 17.5 µM; in test [2] (setting [9]), 7.7 µg/mL. Moreover, the half-maximal effective concentration (EC50) is 3.4 µM in test [4] (Homo sapiens, FS4-LTM); 3.8 µM in test [5] (Homo sapiens, KB 3-1, 120 h); 2.5 µM in test [6] (Mus musculus, L929, 120 h); 3.5 µM in test [3] (Homo sapiens, MCF7, 120 h); 2.5 to 3.8 µM in test [7].

In the case of `O=[N+]([O-])/C(C(Cl)=C(Cl)Cl)=C(\Nc1cccc2ccccc12)n1cncn1` [Compound 17b, (E)-N-(3,4,4-Trichloro-2-nitro-1-(1H-1,2,4-triazol-1-yl)buta-1,3-dien-1-yl)naphthalen-1-amine], in test [1], the activity at 5 µM was determined as 112%.

Consider `O=[N+]([O-])c1c(-n2nnc3ccccc32)nc2c(ccc3ccccc32)c1C(Cl)Cl` [Compound 18a, 2-(1H-Benzo[d][1,2,3]triazol-1-yl)-4-(dichloromethyl)-3-nitrobenzo[h]quinoline], for which the activity at 5 µM in test [1] was found to be 95.1%.

For `O=[N+]([O-])c1c([S+]([O-])c2ccc(F)cc2)nc2c(ccc3ccccc32)c1C(Cl)Cl` (centres unmarked) [Compound 12, 4-(Dichloromethyl)-2-((4-fluorophenyl)sulfinyl)-3-nitrobenzo[h]quinoline], the activity at 5 µM in test [1] was found to be 2%. Besides, the MIC in test [2] (setting [8]) is 1.2 µM; in test [2] (setting [9]), 0.5 µg/mL. The EC50 is 4.4 µM in test [4] (Homo sapiens, FS4-LTM); 3.1 µM in test [5] (Homo sapiens, KB 3-1, 120 h); 3.3 µM in test [6] (Mus musculus, L929, 120 h); > 50 µM in test [3] (Homo sapiens, MCF7, 120 h).

Turning to `O=[N+]([O-])c1c(N2CCCCC2)nc2c(ccc3ccccc32)c1C(Cl)Cl` [Compound 11a, 4-(Dichloromethyl)-3-nitro-2-(piperidin-1-yl)benzo[h]quinoline], the activity at 5 µM in test [1] came out at 95.6%. Moreover, the “activity against MRSA (in words)” value in test [1] is “inactive”. For the same compound, the concentration for a half-maximal effect (EC50) in test [4] (Homo sapiens, FS4-LTM) is > 50 µM; in test [5] (Homo sapiens, KB 3-1, 120 h), > 50 µM; in test [6] (Mus musculus, L929, 120 h), > 50 µM; in test [3] (Homo sapiens, MCF7, 120 h) it was 19 µM.

As for `O=[N+]([O-])c1c(Sc2ccc(F)cc2)nc2c(ccc3ccccc32)c1C(Cl)Cl` [Compound 10d, 4-(Dichloromethyl)-2-((4-fluorophenyl)thio)-3-nitrobenzo[h]quinoline], the activity at 5 µM in test [1] was found to be 98.4%. For the same compound, in test [1], the “activity against MRSA (in words)” value is “complete loss of activity”. The EC50 is > 50 µM in test [4] (Homo sapiens, FS4-LTM); < 0.1 µM in test [5] (Homo sapiens, KB 3-1, 120 h); > 50 µM in test [6] (Mus musculus, L929, 120 h); > 50 µM in test [3] (Homo sapiens, MCF7, 120 h).

For `O=[N+]([O-])c1c(N2CCOCC2)nc2c(ccc3ccccc32)c1C(Cl)Cl` [Compound 11b, 4-(4-(Dichloromethyl)-3-nitrobenzo[h]quinolin-2-yl)morpholine], the activity at 5 µM in test [1] was determined as 123%. The “activity against MRSA (in words)” value in test [1] was “inactive”. Besides, the EC50 was > 50 µM in test [4] (Homo sapiens, FS4-LTM); 10 µM in test [5] (Homo sapiens, KB 3-1, 120 h); 27 µM in test [6] (Mus musculus, L929, 120 h); 50 µM in test [3] (Homo sapiens, MCF7, 120 h).

Consider `O=[N+]([O-])c1c(-n2cccn2)nc2c(ccc3ccccc32)c1C(Cl)Cl` [Compound 18c, 4-(Dichloromethyl)-3-nitro-2-(1H-pyrazol-1-yl)benzo[h]quinoline], for which, in test [1], the activity at 5 µM was 110%.

Turning to `CCOC(=O)CSc1nc2c(ccc3cc4ccccc4cc32)c(C(Cl)Cl)c1[N+](=O)[O-]` [Compound 6, Ethyl 2-((4-(dichloromethyl)-3-nitronaphtho[2,3-h]quinolin-2-yl)thio)acetate], in test [1], the activity at 5 µM was found to be 112% and the “activity against MRSA (in words)” value is “inactive”.

With `O=[N+]([O-])c1c(-n2cncn2)nc2c(ccc3ccccc32)c1C(Cl)Cl` [Compound 18b, 4-(Dichloromethyl)-3-nitro-2-(1H-1,2,4-triazol-1-yl)benzo[h]quinoline], the activity at 5 µM in test [1] turned out to be 107%.

For the compound `O=[N+]([O-])/C(C(Cl)=C(Cl)Cl)=C(\Nc1cccc2ccccc12)n1cccn1` [Compound 17c, (E)-N-(3,4,4-Trichloro-2-nitro-1-(1H-pyrazol-1-yl)buta-1,3-dien-1-yl)naphthalen-1-amine], the activity at 5 µM in test [1] came to 101%.

On to `O=[N+]([O-])/C(C(Cl)=C(Cl)Cl)=C(\Nc1cccc2ccccc12)n1nnc2ccccc21` [Compound 17a, (E)-N-(1-(1H-Benzo[d][1,2,3]triazol-1-yl)-3,4,4-trichloro-2-nitrobuta-1,3-dien-1-yl)naphthalen-1-amine], for which the activity at 5 µM in test [1] worked out at 120%.

What is called EC50 is the concentration at which the effect is half-maximal.
